Assay results as given in patent US12076354B2, “Antibiotic with spirulina platensis and plant extracts” (KING FAISAL UNIVERSITY, priority 2022, dated 2024).

Experiments:
[1] = system: Acinetobacter baumannii (ATCC17978); assay: Disk diffusion susceptibility method, Acinetobacter baumannii ATCC17978; assay type: cell-based; details: disks with 20 μl antibiotic composition, 10 μg colistin or 15 μg Tigecycline, 2 hours at 4° C., then 37° C.
Description: (§1) The antibiotic composition was tested using the disk diffusion susceptibility method previously published by Bauer et al. (Bauer, A. W., et al., “Antibiotic susceptibility testing by a standardized single disk method,” Amer J Clin Pathol 45: pp. 495-496 ([…])). Briefly, a multidrug resistant strain of Acinetobacter baumannii was isolated from patients with Type 2 Diabetes Mellitus in a hospital setting in Saudi Arabia. Whatman No. 1 sterilized-paper disks were saturated with 20 μl of the antibiotic composition. Disks were then dried and placed on the surface of a medium inoculated with either the isolated MDR Acinetobacter baumannii or Acinetobacter baumannii (ATCC17978). A further test was run using either 10 μg colistin or 15 μg Tigecycline as controls. The plates containing the inoculated medium were kept for 2 hours at 4° C. to ensure the diffusion of the bioactive material, and then were incubated at 37° C. Disks containing 30 μl of water were used as a negative control.

[2] = system: multidrug resistant strain of Acinetobacter baumannii; assay: Disk diffusion susceptibility method, MDR Acinetobacter baumannii isolate; assay type: cell-based; details: isolated MDR strain from patients with Type 2 Diabetes Mellitus; disks with 20 μl antibiotic composition, 10 μg colistin or 15 μg Tigecycline; 2 hours at 4° C., then 37° C.
Description: as §1

| Molecule | zones of inhibition [1] | zones of inhibition [2] |
| --- | --- | --- |
| CN(C)c1cc(NC(=O)CNC(C)(C)C)c(O)c2c1C[C@H]1C[C@H]3[C@H](N(C)C)C(O)=C(C(N)=O)C(=O)[C@@]3(O)C(O)=C1C2=O [Tigecycline] | not around the traditional antibiotic controls | not around the traditional antibiotic controls |
| colistin | not around the traditional antibiotic controls | not around the traditional antibiotic controls |
